The source of these data is PMC8165021 (Bioorganic & medicinal chemistry letters, 2021).

Assay [1] has as its target T1, D3R (Homo sapiens, UniProt P35462). As to the kind of experiment: Radioligand binding at D3R. The note with it: for D3R selectivities versus the other dopamine receptors tested: versus D1R, D2R, D4R, D5R.
Assay [2] concerns the target T1, D3R. The note with it: flexible n-butyl linker compound from previous study; ref [19]; cited from earlier work.

T1 sequence (P35462 whole entry): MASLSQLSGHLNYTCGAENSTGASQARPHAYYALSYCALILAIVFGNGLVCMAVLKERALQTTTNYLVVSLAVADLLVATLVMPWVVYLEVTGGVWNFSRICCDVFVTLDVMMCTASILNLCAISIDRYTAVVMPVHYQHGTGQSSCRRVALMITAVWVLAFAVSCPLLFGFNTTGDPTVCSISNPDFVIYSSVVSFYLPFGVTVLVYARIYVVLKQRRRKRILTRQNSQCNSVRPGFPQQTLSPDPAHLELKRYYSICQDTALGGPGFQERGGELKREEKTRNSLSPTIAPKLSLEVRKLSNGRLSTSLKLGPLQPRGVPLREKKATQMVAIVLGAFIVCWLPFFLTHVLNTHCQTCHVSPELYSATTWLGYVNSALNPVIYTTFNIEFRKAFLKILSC

On to `COc1cc2c(cc1O)CN(Cc1ccccc1CNC(=O)c1cccc(C#N)c1)CC2` [5i], for which the “D3R selectivity versus D4R” value on D3R [1] (ratio of Ki values) is recorded as above 100 fold.

On to `COc1cc2c(cc1OC)CN(Cc1ccccc1CNC(=O)c1cccc(C#N)c1)CC2` [5s], for which, at D3R [1], the “D3R selectivities versus the other dopamine receptors tested” value is 15- to 420 fold.

Turning to `COc1cc2c(cc1OC)CN(Cc1ccccc1CNC(=O)c1ccc(C#N)cc1)CC2` [5t], on D3R [1], the “D3R selectivities versus the other dopamine receptors tested” value was 15- to 420 fold.

As for `O=C(NCc1ccccc1CN1CCc2cc(O)c(O)cc2C1)c1cccc(Br)c1` [6a], the “D3R selectivity versus D1R, D2R and D4R” value on D3R [1] is recorded as below 50 fold.

In the case of `COc1cc2c(cc1O)CN(CCCCNC(=O)c1ccc(C#N)cc1)CC2` [compound 1], the “selectivity for D3R over σ2R” value at D3R [2] is recorded as “good selectivity”.
